The values below are quoted from earlier work in patent EP4378455A1, “A PHARMACEUTICAL FORMULATION COMPRISING EMPAGLIFLOZIN” (SANOVEL ILAC SANAYI VE TICARET A.S., priority 2022, dated 2024).

Consider `OC[C@H]1O[C@@H](c2ccc(Cl)c(Cc3ccc(O[C@H]4CCOC4)cc3)c2)[C@H](O)[C@@H](O)[C@@H]1O` [Empagliflozin, (1S)-1,5-anhydro-1-(4-chloro-3-{4-[(3S)-tetrahydrofuran-3-yloxy]benzyl}phenyl)-D-glucitol], for which the solubility in acetonitrile entry (acetonitrile) is on record as “slightly soluble”. The solubility in ethanol entry (ethanol) is recorded as “slightly soluble”. Further, the solubility in methanol entry (methanol) is “sparingly soluble”. Further, the solubility in toluene result (toluene) is “practically insoluble”. The solubility in water entry (water (pH 1-7.4)) was “very slightly soluble”.
